# Laboratory results taken from patent US9694015B2, “Methods for the treatment of locally advanced breast cancer” (Celgene Corporation, priority 2012, dated 2017).
# Values joined by “and” are separate entries in the source; they are usually repeats but may differ in a detail not shown here. Identical values can stand only once.
# Tests used:
# [1] = GLP 28-day toxicity study in rat; assay type: in vivo
# Aiolos [2] = biological target: T1, Aiolos (Homo sapiens (Human), UniProt Q9UKT9); test: Aiolos protein in myeloma cells; assay type: cell-based
# RANTES = test: LPS-stimulated hPBMC cytokine/chemokine production: RANTES enhancement; assay type: cell-based, human
# MCP-1 = test: LPS-stimulated hPBMC cytokine/chemokine production: MCP-1 enhancement; assay type: cell-based, human
# Text: (§1) Data provided are IC50 (μM) values for the indicated cytokines
# tumor cells = test: Direct in vitro activity against tumor cells; assay type: cell-based
# NFKB = NFKB DNA binding activity in DLBCL cells; assay type: cell-based
# Ikaros = Ikaros (Homo sapiens (Human), UniProt Q13422); test: Ikaros expression by western blot at 6 hours; assay type: cell-based; conditions: western blot at 6 hours after the treatment
# Aiolos [3] = biological target: T1, Aiolos; test: Aiolos expression with and without proteasome inhibitor; assay type: cell-based
# Text: It appeared that the inhibitory effect correlates with compound's anti-proleferative activity in myeloma cells.
# Aiolos [4] = biological target: T1, Aiolos; test: Overexpressed flag-Aiolos-myc fusion protein in AU565 cells (western blot); assay type: cell-based
# Protocol: In some experiments, cell lines were transfected with an Aiolos overexpression vector using Lipofectamine reagent in a batch method. Cells were seeded in a 12 well plate at 1×10^5 cells in a 3 mL volume per well. Where specified, cells were pretreated with MG132 at 10 uM for 1 hour, or DMSO was added as a control.
# (§2) Cells were harvested and lysed in Pierce #89900 Ripa buffer containing 2× protease inhibitor cocktail from Pierce #78442. The lysate was applied to a QiaShredder to remove DNA. Total protein yield was measured using BioRad DC protein determination kit (Cat#500-0112). Lysates were stored at −80° C. until use. Samples were applied to BioRad Criterion PreCast gels, 10% (Bio-Rad#345-0010) and transferred to Bio-Rad Nitrocellulose/Filter Paper Sandwiches (#162-0233) for western blot analysis.
# [5] = GLP 28-day toxicity study in monkey; assay type: in vivo
# IL-10 = test: LPS-stimulated hPBMC cytokine/chemokine production: IL-10 enhancement; assay type: cell-based, human
# Text: as §1
# [6] = test system: U87 (GBM), H929 (MM), WSU-DLCL2 and DOHH2 (NHL) xenografts; test: Xenografts, single agent; assay type: in vivo
# Aiolos [7] = biological target: T1, Aiolos; test: Endogenous Aiolos in breast cancer cells (western blot); assay type: cell-based
# Protocol: Cell lines (AU565, ZR 75-1, BT-474, EFM-192A, HCC1954, HCC70, MB436 and BT549) were maintained using standard cell culture techniques. For endogenous Aiolos expression, cells were seeded in a 6 well plate at 0.5×10^6 cells per well in a 3 mL volume of media. Cells were allowed to adhere to the plate overnight.
# as §2
# HIF1-α = test: Hypoxia-induced HIF1-α expression in solid tumor cell lines; assay type: cell-based; conditions: solid tumor cell lines (e.g., breast, ovarian, colorectal, HCC)
# Aiolos [8] = biological target: T1, Aiolos; test: Aiolos expression by western blot at 6 hours; assay type: cell-based; conditions: western blot at 6 hours after the treatment
smiles,measurement,setting,value
"Cc1nc2cccc(N)c2c(=O)n1C1CCC(=O)NC1=O (stereo not shown) [Compound A, 3-(5-amino-2-methyl-4-oxo-4H-quinazolin-3-yl)-piperidine-2,6-dione]","Rat STD10 (severely toxic dose in 10% of the animals), Animal Dose","[1]; 28-day toxicity study, rat",300 mg mg base/kg/day
same,HED (mg/person) from rat STD10,[1]; 60-kg human body weight,2900 mg mg base/person
same,HED (mg/kg) from rat STD10,[1]; human equivalent dose,48 mg mg base/kg
same,Starting Dose (mg) from rat STD10,[1]; safety factor 10,290 mg mg base
same,inhibitory effect on Aiolos expression,Aiolos [2],showed inhibitory effect
same,RANTES (% of control),RANTES,131 % of control
same,MCP-1 (% of control),MCP-1,236 % of control
same,direct in vitro activity against tumor cells,tumor cells,limited direct in vitro activity
same,NFKB DNA binding activity,NFKB,partially inhibits
same,expression of Ikaros,Ikaros,inhibited
same,expression of Aiolos,"Aiolos [3]; absence of a proteasome inhibitor, 60, 120, 240, 500 and 100 nM",inhibit the expression of Aiolos
same,expression of Aiolos,Aiolos [3]; proteasome inhibitor present,little inhibition
same,time at which reduction of overexpressed Aiolos begins to show,Aiolos [4]; AU565 cells overexpressing flag-Aiolos-myc,about 5 hours
same,inhibition of Aiolos with proteasome inhibitor MG-132,Aiolos [4]; addition of MG-132,rescued
same,Monkey HNSTD,"[5]; 28-day toxicity study, monkey",6 mg/m^2
same,"Monkey HNSTD (highest non-severely toxic dose), Animal Dose","[5]; 28-day toxicity study, monkey",0.5 mg base/kg/day and 0.5 mg mg base/kg/day
same,HED (mg/person) from monkey HNSTD,[5]; 60-kg human body weight,10 mg mg base/person
same,HED (mg/kg) from monkey HNSTD,[5]; human equivalent dose,0.16 mg mg base/kg
same,Starting Dose (mg) from monkey HNSTD,[5]; safety factor 6,1.7 mg mg base
same,IL-10 (% of control),IL-10,480 % of control
same,single agent activity in xenografts,[6],single agent activity was observed
same,endogenous Aiolos,"Aiolos [7]; Her^2+ cells (AU565, BT-474, EFM-192A and HCC1954)",inhibited
same,levels of Aiolos,"Aiolos [7]; ZR 75-1 and AU565 cell lines, 24 hours after the treatment",reduced the levels of Aiolos
same,HIF1α induction in response to hypoxia,HIF1-α,inhibits
same,expression of Aiolos,Aiolos [8],inhibited
